This is an account of results in patent US11912686B2 (Gilead Sciences, Inc., priority 2020, dated 2024).

As a reminder, the EC50 is the concentration at which the effect is half-maximal.

This test deals with human LPAR1 (Homo sapiens (Human), UniProt Q92633). Description: LPAR1 intracellular calcium mobilization assay (antagonist mode, FLIPR). Type of test: cell-based. Conditions: CHO-K1 EDG2 cells expressing human LPAR1, LPA 18:2 at EC80 (100 nM), test compound 0.5 nM to 10 μM. Background: Calcium assays in cells follow changes in intracellular calcium, usually with a dye or a luminescent sensor.
Sequence of human LPAR1 (Q92633 whole entry): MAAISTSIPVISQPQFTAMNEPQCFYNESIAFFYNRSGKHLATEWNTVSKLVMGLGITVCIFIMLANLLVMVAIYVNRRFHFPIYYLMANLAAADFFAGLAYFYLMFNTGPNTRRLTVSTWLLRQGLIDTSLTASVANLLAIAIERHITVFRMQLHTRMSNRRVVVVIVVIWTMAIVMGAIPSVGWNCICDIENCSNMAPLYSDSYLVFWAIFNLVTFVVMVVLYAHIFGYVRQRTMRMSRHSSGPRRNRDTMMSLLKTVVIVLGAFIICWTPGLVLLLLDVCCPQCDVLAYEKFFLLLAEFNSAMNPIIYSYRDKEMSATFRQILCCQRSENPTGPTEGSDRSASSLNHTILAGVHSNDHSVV
As for `C[C@@H](OC(=O)Nc1c(-c2ccc(NC(=O)C3CCC3C#N)cn2)nnn1C)c1cccnc1Cl` (stereo partly drawn) [Compound 142, (R)-1-(2-chloropyridin-3-yl)ethyl (4-(5-(2-cyanocyclobutane-1-carboxamido)pyridin-2-yl)-1-methyl-1H-1,2,3-triazol-5-yl)carbamate], the EC50 is 217 nM. Next, `C[C@@H](OC(=O)Nc1c(-c2ccc(NC(=O)C3C4CCOC43)cn2)nnn1C)c1cccnc1Cl` (stereo partly drawn) [Compound 159, (R)-1-(2-chloropyridin-3-yl)ethyl (4-(5-(2-oxabicyclo[3.1.0]hexane-6-carboxamido)pyridin-2-yl)-1-methyl-1H-1,2,3-triazol-5-yl)carbamate]: 394 nM. On to `C[C@@H](OC(=O)Nc1c(-c2ncc(NC(=O)c3ccc(Cl)nc3)cc2F)nnn1C)c1cc(F)cnc1F` [Compound 338, (R)-1-(2,5-difluoropyridin-3-yl)ethyl (4-(5-(6-chloronicotinamido)-3-fluoropyridin-2-yl)-1-methyl-1H-1,2,3-triazol-5-yl)carbamate], for which the EC50 was found to be 132 nM. As for `C[C@@H](OC(=O)Nc1c(-c2ccc(NC(=O)C3(C)COC3)cn2)nnn1C)c1cccnc1Cl` [Compound 97, (R)-1-(2-chloropyridin-3-yl)ethyl (1-methyl-4-(5-(3-methyloxetane-3-carboxamido)pyridin-2-yl)-1H-1,2,3-triazol-5-yl)carbamate], the EC50 came out at 395 nM. Next, `C[C@@H](OC(=O)Nc1c(-c2ccc(NC(=O)[C@@H]3CNC(=O)C3)cn2)nnn1C)c1cccnc1Cl` [Compound 150, (R)-1-(2-chloropyridin-3-yl)ethyl (1-methyl-4-(5-((S)-5-oxopyrrolidine-3-carboxamido)pyridin-2-yl)-1H-1,2,3-triazol-5-yl)carbamate]: 880 nM; `C[C@@H](OC(=O)Nc1c(-c2ccc(NC(=O)C3CC(F)(F)C3)cn2)nnn1C)c1cccnc1Cl` [Compound 37, (R)-1-(2-chloropyridin-3-yl)ethyl (4-(5-(3,3-difluorocyclobutane-1-carboxamido)pyridin-2-yl)-1-methyl-1H-1,2,3-triazol-5-yl)carbamate]: 54.6 nM. To `C[C@@H](OC(=O)Nc1c(-c2ccc(NC(=O)c3ccnc(C#N)c3)cn2)nnn1C)c1cccnc1Cl` [Compound 100, (R)-1-(2-chloropyridin-3-yl)ethyl (4-(5-(2-cyanoisonicotinamido)pyridin-2-yl)-1-methyl-1H-1,2,3-triazol-5-yl)carbamate] belongs 90.8 nM; to `C[C@@H](OC(=O)Nc1c(-c2ncc(NC(=O)c3ccc(C(F)(F)F)nc3)cn2)nnn1C)c1cc(F)cnc1Cl` [Compound 332, (R)-1-(2-chloro-5-fluoropyridin-3-yl)ethyl (1-methyl-4-(5-(6-(trifluoromethyl)nicotinamido)pyrimidin-2-yl)-1H-1,2,3-triazol-5-yl)carbamate], 354 nM; to `C[C@@H](OC(=O)Nc1c(-c2ccc(NC(=O)[C@@H]3C[C@H]3F)cn2)nnn1C)c1cccnc1Cl` [Compound 69, (R)-1-(2-chloropyridin-3-yl)ethyl (4-(5-((1S,2R)-2-fluorocyclopropane-1-carboxamido)pyridin-2-yl)-1-methyl-1H-1,2,3-triazol-5-yl)carbamate], 53 nM. To `C[C@@H](OC(=O)Nc1c(-c2ncc(NC(=O)[C@]3(C#N)C[C@H]3C(F)F)cn2)nnn1C)c1cc(F)cnc1Cl` [Compound 286, (R)-1-(2-chloro-5-fluoropyridin-3-yl)ethyl (4-(5-((1R,2R)-1-cyano-2-(difluoromethyl)cyclopropane-1-carboxamido)pyrimidin-2-yl)-1-methyl-1H-1,2,3-triazol-5-yl)carbamate] belongs 104 nM; to `C[C@@H](OC(=O)Nc1c(-c2ccc(NC(=O)C3(C#N)CC3)cn2)nnn1C)c1cc(F)cnc1F` [Compound 39, (R)-1-(2,5-difluoropyridin-3-yl)ethyl (4-(5-(1-cyanocyclopropane-1-carboxamido)pyridin-2-yl)-1-methyl-1H-1,2,3-triazol-5-yl)carbamate], 50.8 nM. `Cc1ncc(F)cc1[C@@H](C)OC(=O)Nc1c(-c2ccc(NC(=O)C34CC(F)(C3)C4)cn2)nnn1C` [Compound 179, (R)-1-(5-fluoro-2-methylpyridin-3-yl)ethyl (4-(5-(3-fluorobicyclo[1.1.1]pentane-1-carboxamido)pyridin-2-yl)-1-methyl-1H-1,2,3-triazol-5-yl)carbamate]: the concentration giving a half-maximal response (EC50) came out at 46.5 nM. As to `C[C@@H](OC(=O)Nc1c(-c2ccc(NC(=O)C3CC3(C)C)cn2)nnn1C)c1cccnc1Cl` (stereo partly drawn) [Compound 49, (R)-1-(2-chloropyridin-3-yl)ethyl (4-(5-(2,2-dimethylcyclopropane-1-carboxamido)pyridin-2-yl)-1-methyl-1H-1,2,3-triazol-5-yl)carbamate], the EC50 was 353 nM. To `Cc1cc(C(=O)Nc2ccc(-c3nnn(C)c3NC(=O)O[C@H](C)c3cccnc3Cl)nc2)ccn1` [Compound 102, (R)-1-(2-chloropyridin-3-yl)ethyl (1-methyl-4-(5-(2-methylisonicotinamido)pyridin-2-yl)-1H-1,2,3-triazol-5-yl)carbamate] belongs 85.6 nM; to `C[C@@H](OC(=O)Nc1c(-c2ccc(NC(=O)[C@H]3C[C@](O)(C#N)C3)cn2)nnn1C)c1cccnc1Cl` [Compound 140, (R)-1-(2-chloropyridin-3-yl)ethyl (4-(5-((1s,3S)-3-cyano-3-hydroxycyclobutane-1-carboxamido)pyridin-2-yl)-1-methyl-1H-1,2,3-triazol-5-yl)carbamate], 349 nM. On to `C[C@@H](OC(=O)Nc1c(-c2ccc(NC(=O)C3(C(F)F)CC3)cn2)nnn1C)c1cc(F)cnc1F` [Compound 165, (R)-1-(2,5-difluoropyridin-3-yl)ethyl (4-(5-(1-(difluoromethyl)cyclopropane-1-carboxamido)pyridin-2-yl)-1-methyl-1H-1,2,3-triazol-5-yl)carbamate], for which the EC50 is 487 nM.

Consider `CNC(=O)Nc1ccc(-c2nnn(C)c2NC(=O)O[C@H](C)c2ccccc2Cl)cn1` [Compound 3], for which the EC50 is 10000 nM.

As for `Cc1cnoc1C(=O)Nc1ccc(-c2nnn(C)c2NC(=O)O[C@H](C)c2cc(F)cnc2F)nc1` [Compound 227, (R)-1-(2,5-difluoropyridin-3-yl)ethyl (1-methyl-4-(5-(4-methylisoxazole-5-carboxamido)pyridin-2-yl)-1H-1,2,3-triazol-5-yl)carbamate], the EC50 came out at 206 nM. Consider `C[C@@H](OC(=O)Nc1c(-c2ccc(NC(=O)C3(F)CC(F)C3)cn2)nnn1C)c1cccnc1Cl` (stereo partly drawn) [Compound 131, (R)-1-(2-chloropyridin-3-yl)ethyl (4-(5-(1,3-difluorocyclobutane-1-carboxamido)pyridin-2-yl)-1-methyl-1H-1,2,3-triazol-5-yl)carbamate], for which the EC50 worked out at 260 nM. To `C[C@@H](OC(=O)Nc1c(-c2ccc(NC(=O)C34CC(F)(C3)C4)cn2)nnn1C)c1cc(F)cnc1F` [Compound 163, (R)-1-(2,5-difluoropyridin-3-yl)ethyl (4-(5-(3-fluorobicyclo[1.1.1]pentane-1-carboxamido)pyridin-2-yl)-1-methyl-1H-1,2,3-triazol-5-yl)carbamate] belongs 32.6 nM; to `C[C@@H](OC(=O)Nc1c(-c2ccc(NC(=O)[C@H]3[C@@H]4CC(F)(F)C[C@@H]43)cn2)nnn1C)c1cc(F)cnc1F` (racemic) [Compound 230, (R)-1-(2,5-difluoropyridin-3-yl)ethyl (4-(5-((1RS,5SR,6SR)-3,3-difluorobicyclo[3.1.0]hexane-6-carboxamido)pyridin-2-yl)-1-methyl-1H-1,2,3-triazol-5-yl)carbamate], 26.7 nM. To `Cc1cc(C(=O)Nc2ccc(-c3nnn(C)c3NC(=O)O[C@H](C)c3cc(F)cnc3F)nc2)on1` [Compound 260, (R)-1-(2,5-difluoropyridin-3-yl)ethyl (1-methyl-4-(5-(3-methylisoxazole-5-carboxamido)pyridin-2-yl)-1H-1,2,3-triazol-5-yl)carbamate] belongs 161 nM.

Turning to `C[C@@H](OC(=O)Nc1c(-c2ccc(NC(=O)c3cnc(C(F)(F)F)nc3)cn2)nnn1C)c1cccnc1Cl` [Compound 205, (R)-1-(2-chloropyridin-3-yl)ethyl (1-methyl-4-(5-(2-(trifluoromethyl)pyrimidine-5-carboxamido)pyridin-2-yl)-1H-1,2,3-triazol-5-yl)carbamate], the concentration for a half-maximal effect (EC50) came to 8.3 nM. Next, `COC12CC(C(=O)Nc3ccc(-c4nnn(C)c4NC(=O)O[C@H](C)c4cccnc4Cl)nc3)(C1)C2` [Compound 46, (R)-1-(2-chloropyridin-3-yl)ethyl (4-(5-(3-methoxybicyclo[1.1.1]pentane-1-carboxamido)pyridin-2-yl)-1-methyl-1H-1,2,3-triazol-5-yl)carbamate]: 29.7 nM.

For `C[C@@H](OC(=O)Nc1c(-c2ccc(NC(=O)C34CC(C(F)(F)F)(C3)C4)cn2)nnn1C)c1cccnc1Cl` [Compound 72, (R)-1-(2-chloroypridin-3-yl)ethyl (1-methyl-4-(5-(3-(trifluoromethyl)bicyclo[1.1.1]pentane-1-carboxamido)pyridin-2-yl)-1H-1,2,3-triazol-5-yl)carbamate], the half-maximal effective concentration (EC50) was 17 nM. For the compound `C[C@@H](OC(=O)Nc1c(-c2ccc(NC(=O)C3(C#N)CC3C(F)(F)F)cn2)nnn1C)c1cccnc1Cl` (stereo partly drawn) [Compound 147, (R)-1-(2-chloropyridin-3-yl)ethyl (4-(5-(1-cyano-2-(trifluoromethyl)cyclopropane-1-carboxamido)pyridin-2-yl)-1-methyl-1H-1,2,3-triazol-5-yl)carbamate], the 50% effective concentration (EC50) is 33.9 nM. On to `Cc1nccc(C(=O)Nc2ccc(-c3nnn(C)c3NC(=O)O[C@H](C)c3cc(F)cnc3F)nc2)n1` [Compound 249, (R)-1-(2,5-difluoropyridin-3-yl)ethyl (1-methyl-4-(5-(2-methylpyrimidine-4-carboxamido)pyridin-2-yl)-1H-1,2,3-triazol-5-yl)carbamate], for which the half-maximal effective concentration (EC50) came to 537 nM. Next, `C[C@@H](OC(=O)Nc1c(-c2ccc(NC(=O)C3(C(F)F)CC3)cn2)nnn1C)c1cc(F)cnc1Cl` [Compound 166, (R)-1-(2-chloro-5-fluoropyridin-3-yl)ethyl (4-(5-(1-(difluoromethyl)cyclopropane-1-carboxamido)pyridin-2-yl)-1-methyl-1H-1,2,3-triazol-5-yl)carbamate]: 238 nM.
